Data from US9266867B2, “Piperidinyl monocarboxylic acids as S1P1 receptor agonists” (BIOPROJET, priority 2011, dated 2016).
Where a name gives a salt, the structure may show the parent alone. Read-outs that look alike come from different tables or passages of the source.

Experiments:
EDG-1 = EDG-1 (Homo sapiens, UniProt P21453); assay: 35S-GTPγS binding assay, EDG1 (S1P1); assay type: biochemical; parameters: expressed in transfected cells; details: read-out: EDG1 EC50
Procedure: a) 35S-GTPγS Binding Assay GTP-γ-^35S binding was performed using […]15 μg protein of cell membranes suspended in 50 mM tris-HCl pH 7.5 containing 10 mM MgCl2, 100 mM NaCl and 10 μM GDP. The radioligand was 0.025 nM [^35S] GTP-γ-S and non specific binding determined in the presence of 10 μM non-radioactive GTP-γ-S. […] The maximal stimulation elicited by S1P was taken as a reference to define full or partial agonism and calculate the intrinsic activity (i.a.) of compounds.

circulating lymphocytes = assay: Assessment of lymphopenia in rats; assay type: in vivo; details: 1 mpk p.o.
Procedure: b) Assessment of Lymphopenia
Lymphopenia was assessed in vivo. Experiments were done in non-fasted/fasted Swiss mice and/or: Sprague Dawley rats, Wistar rats, Beagle dogs, Cynomolgus monkeys. Compounds were administered orally in suspension in carboxymethyl-cellulose 0.5-1% in water (W/V). Blood was taken on anesthetized/non anaesthetized animal (4% isoflurane) and samples collected in EDTA-containing vacuum tubes from 1 h 30 to 72 hours post administration for lymphopenia measurement.
After 10 minutes stirring, cells were counted using ABC Vet haemocytometer (Scil vet animal Care) for rodent and dog or ADVIA 120 hematology analyzer for monkeys. Pharmacodynamic effect was measured by the decrease in circulating lymphocytes by test item treatment in comparison with haematological parameters of control animals or versus predosing in the same animals.

Sequence of EDG-1 (P21453 whole entry): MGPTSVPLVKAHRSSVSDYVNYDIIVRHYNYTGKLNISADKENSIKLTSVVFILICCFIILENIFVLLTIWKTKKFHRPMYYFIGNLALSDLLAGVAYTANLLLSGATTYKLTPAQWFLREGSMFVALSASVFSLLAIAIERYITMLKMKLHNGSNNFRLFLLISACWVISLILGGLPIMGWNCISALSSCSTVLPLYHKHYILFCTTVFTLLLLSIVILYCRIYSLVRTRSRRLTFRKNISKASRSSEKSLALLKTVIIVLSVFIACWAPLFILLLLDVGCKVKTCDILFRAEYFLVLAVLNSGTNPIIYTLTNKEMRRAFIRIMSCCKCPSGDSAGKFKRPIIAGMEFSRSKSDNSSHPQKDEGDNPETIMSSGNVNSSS

| Compound | EC50 (EDG-1; Table 1b) [nM] | further results |
| --- | --- | --- |
| CC(C)Oc1ccc(-c2nc(-c3ccc(CN4CCC(C)(C(=O)O)CC4)cc3)no2)cc1Cl [Example 44, 1-{4-[5-(3-Chloro-4-isopropoxy-phenyl)-[1,2,4]-oxadiazol-3-yl]-benzyl}-4-methyl-piperidine-4-carboxylic acid tert-butyl amine salt] | < 10 | – |
| CC1(C(=O)O)CCN(Cc2ccc(-c3noc(-c4ccc(C(C)(C)C)c(Cl)c4)n3)cc2)CC1 [Example 45, 1-{4-[5-(4-tert-Butyl-3-chloro-phenyl)-[1,2,4]-oxadiazol-3-yl]-benzyl}-4-methyl-piperidine-4-carboxylic acid tert-butyl amine salt] | < 10 | – |
| CCCc1ccc(-c2nc(-c3ccc(CN4CCC(C)(C(=O)O)CC4)cc3)no2)cc1Cl [Example 46, 1-{4-[5-(3-Chloro-4-propyl-phenyl)-[1,2,4]-oxadiazol-3-yl]-benzyl}-4-methyl-piperidine-4-carboxylic acid tert-butyl amine salt] | < 1 | – |
| COCCOCC1(C(=O)O)CCN(Cc2ccc(-c3noc(-c4ccc(OC(C)C)c(Cl)c4)n3)cc2)CC1 [Example 47, 1-{4-[5-(3-Chloro-4-isopropoxy-phenyl)-[1,2,4]-oxadiazol-3-yl]-benzyl}-4-(2-methoxy-ethoxymethyl)-piperidine-4-carboxylic acid tert-butyl amine salt] | < 1 | – |
| CCC1(C(=O)O)CCN(Cc2ccc(-c3noc(-c4ccc(OC(C)C)c(Cl)c4)n3)cc2)CC1 [Example 48, 1-{4-[5-(3-Chloro-4-isopropoxy-phenyl)-[1,2,4]-oxadiazol-3-yl]-benzyl}-4-ethyl-piperidine-4-carboxylic acid tert-butyl amine salt] | < 10 | – |
| C=CCC1(C(=O)O)CCN(Cc2ccc(-c3noc(-c4ccc(OC(C)C)c(Cl)c4)n3)cc2)CC1 [Example 49, 4-Allyl-1-{4-[5-(3-chloro-4-isopropoxy-phenyl)-[1,2,4]-oxadiazol-3-yl]-benzyl}-piperidine-4-carboxylic acid tert-butyl amine salt] | < 1 | – |
| O=C(O)C1(Cc2ccccn2)CCN(Cc2ccc(-c3noc(-c4ccc(-c5ccccc5)c(Cl)c4)n3)cc2)CC1 [Example 50, 1-{4-[5-(2-Chloro-biphenyl-4-yl)-[1,2,4]-oxadiazol-3-yl]-benzyl}-4-pyridin-2-ylmethyl-piperidine-4-carboxylic acid tert-butyl amine salt] | < 1 | – |
| COc1ccc(CC2(C(=O)O)CCN(Cc3ccc(-c4noc(-c5ccc(-c6ccccc6)c(Cl)c5)n4)cc3)CC2)cc1 [Example 51, 1-{4-[5-(2-Chloro-biphenyl-4-yl)-[1,2,4]-oxadiazol-3-yl]-benzyl}-4-(4-methoxy-benzyl)-piperidine-4-carboxylic acid tert-butyl amine salt] | < 1 | – |
| O=C(O)C1(Cc2ccc(F)cc2)CCN(Cc2ccc(-c3noc(-c4ccc(-c5ccccc5)c(Cl)c4)n3)cc2)CC1 [Example 52, 1-{4-[5-(2-Chloro-biphenyl-4-yl)-[1,2,4]-oxadiazol-3-yl]-benzyl}-4-(4-fluoro-benzyl)-piperidine-4-carboxylic acid tert-butyl amine salt] | < 1 | – |
| COc1ccc(CC2(C(=O)O)CCN(Cc3ccc(-c4noc(-c5ccc(C6CCCCC6)c(Cl)c5)n4)cc3)CC2)cc1 [Example 53, 1-{4-[5-(3-Chloro-4-cyclohexylphenyl)-[1,2,4]-oxadiazol-3-yl]-benzyl}-4-(4-methoxy-benzyl)-piperidine-4-carboxylic acid tert-butyl amine salt] | < 1 | – |
| CCC1(C(=O)O)CCN(Cc2ccc(-c3noc(-c4ccc(C5CCCCC5)c(Cl)c4)n3)cc2)CC1 [Example 54, 1-{4-[5-(3-Chloro-4-cyclohexylphenyl)-[1,2,4]-oxadiazol-3-yl]-benzyl}-4-ethyl-piperidine-4-carboxylic acid tert-butyl amine salt] | < 1 | – |
| O=C(O)C1(Cc2ccccc2)CCN(Cc2ccc(-c3noc(-c4ccc(-c5ccccc5)c(Cl)c4)n3)cc2)CC1 [Example 55, 4-Benzyl-1-{4-[5-(2-chloro-biphenyl-4-yl)-[1,2,4]-oxadiazol-3-yl]-benzyl}-piperidine-4-carboxylic acid tert-butyl amine salt] | < 1 | – |
| O=C(O)C1(Cc2ccccn2)CCN(Cc2ccc(-c3noc(-c4ccc(C5CCCCC5)c(Cl)c4)n3)cc2)CC1 [Example 56, 1-{4-[5-(3-Chloro-4-cyclohexyl-phenyl)-[1,2,4]-oxadiazol-3-yl]-benzyl}-4-pyridin-2-ylmethyl-piperidine-4-carboxylic acid tert-butyl amine salt] | < 1 | – |
| COCC1(C(=O)O)CCN(Cc2ccc(-c3noc(-c4ccc(OC(C)C)c(Cl)c4)n3)cc2)CC1 [Example 57, 1-{4-[5-(3-Chloro-4-isopropoxy-phenyl)-[1,2,4]-oxadiazol-3-yl]-benzyl}-4-methoxymethyl-piperidine-4-carboxylic acid tert-butyl amine salt] | < 10 | – |
| O=C(O)C1(Cc2cccnc2)CCN(Cc2ccc(-c3noc(-c4ccc(-c5ccccc5)c(Cl)c4)n3)cc2)CC1 [Example 58, 1-{4-[5-(2-Chloro-biphenyl-4-yl)-[1,2,4]-oxadiazol-3-yl]-benzyl}-4-pyridin-3-ylmethyl-piperidine-4-carboxylic acid tert-butyl amine salt] | < 1 | – |
| CCOCCOCC1(C(=O)O)CCN(Cc2ccc(-c3noc(-c4ccc(CC(C)C)c(Cl)c4)n3)cc2)CC1 [Example 59, 1-{4-[5-(3-Chloro-4-isobutyl-phenyl)-[1,2,4]-oxadiazol-3-yl]-benzyl}-4-(2-ethoxy-ethoxymethyl)-piperidine-4-carboxylic acid tert-butyl amine salt] | < 1 | – |
| O=C(O)C1CCN(Cc2ccc(-c3noc(-c4ccc(-c5ccccc5)c(F)c4)n3)cc2)CC1 [compound 1] | – | Lymphopenia in rats % lymphopenia at 1 mpk/p.o dose 8 Hrs (circulating lymphocytes): 18%; Lymphopenia in rats % lymphopenia at 1 mpk/p.o dose 24 Hrs (circulating lymphocytes): −54%; EC50 (EDG-1; comparative examples table): 11.7 to 19.8 nM |
| CC(C)Cc1ccc(-c2nc(-c3ccc(CN4CCC(C(=O)O)CC4)cc3)no2)cc1.Cl [compound 2] | – | Lymphopenia in rats % lymphopenia at 1 mpk/p.o dose 8 Hrs (circulating lymphocytes): −25%; Lymphopenia in rats % lymphopenia at 1 mpk/p.o dose 24 Hrs (circulating lymphocytes): −101%; EC50 (EDG-1; comparative examples table): 57.2 nM |
| CC(C)Cc1ccc(-c2nc(-c3ccc(CN4CCC[C@@H](C(=O)O)C4)cc3)no2)cc1 [compound 3] | – | Lymphopenia in rats % lymphopenia at 1 mpk/p.o dose 8 Hrs (circulating lymphocytes): −24%; Lymphopenia in rats % lymphopenia at 1 mpk/p.o dose 24 Hrs (circulating lymphocytes): −58%; EC50 (EDG-1; comparative examples table): 56.6 nM |
| Cl.O=C(O)C1CCN(Cc2ccc(-c3noc(-c4ccc(C5CCCCC5)cc4)n3)cc2)CC1 [compound 4] | – | Lymphopenia in rats % lymphopenia at 1 mpk/p.o dose 8 Hrs (circulating lymphocytes): 2%; Lymphopenia in rats % lymphopenia at 1 mpk/p.o dose 24 Hrs (circulating lymphocytes): −57%; EC50 (EDG-1; comparative examples table): 13.9 nM |

More lines, main results first:

| EC50 (EDG-1; Table 1b) [nM] | Compound | further results |
| --- | --- | --- |
| < 1 | CC(C)Cc1ccc(-c2nc(-c3ccc(CN4CCC(COC(C)C)(C(=O)O)CC4)cc3)no2)cc1Cl [Example 60, 1-{4-[5-(3-Chloro-4-isobutyl-phenyl)-[1,2,4]-oxadiazol-3-yl]-benzyl}-4-isopropoxy methyl-piperidine-4-carboxylic acid tert-butyl amine salt] | – |
| < 1 | CC(C)Cc1ccc(-c2nc(-c3ccc(CN4CCC(COC5CCCC5)(C(=O)O)CC4)cc3)no2)cc1Cl [Example 61, 1-{4-[5-(3-Chloro-4-isobutyl-phenyl)-[1,2,4]-oxadiazol-3-yl]-benzyl}-4-cyclopentyloxymethyl-piperidine-4-carboxylic acid tert-butyl amine salt] | – |
| < 1 | CC(C)Cc1ccc(-c2nc(-c3ccc(CN4CCC(Cc5cccs5)(C(=O)O)CC4)cc3)no2)cc1Cl [Example 62, 1-{4-[5-(3-Chloro-4-isobutyl-phenyl)-[1,2,4]-oxadiazol-3-yl]-benzyl}-4-thiophen-2-ylmethyl-piperidine-4-carboxylic acid tert-butyl amine salt] | – |
| < 1 | CC(C)Cc1ccc(-c2nc(-c3ccc(CN4CCC(CC5CC5)(C(=O)O)CC4)cc3)no2)cc1Cl [Example 63, 1-{4-[5-(3-Chloro-4-isobutyl-phenyl)-[1,2,4]-oxadiazol-3-yl]-benzyl}-4-cyclopropylmethyl-piperidine-4-carboxylic acid tert-butyl amine salt] | – |
| < 10 | CC(C)Cc1ccc(-c2nc(-c3ccc(CN4CCC(CCN5CCOCC5)(C(=O)O)CC4)cc3)no2)cc1Cl [Example 64, 1-{4-[5-(3-Chloro-4-isobutyl-phenyl)-[1,2,4]-oxadiazol-3-yl]-benzyl}-4-(2-morpholin-4-yl-ethyl)-piperidine-4-carboxylic acid] | – |
| < 10 | CC(C)Cc1ccc(-c2nc(-c3ccc(CN4CCC(CCCN5CCCCC5)(C(=O)O)CC4)cc3)no2)cc1Cl [Example 65, 1-{4-[5-(3-Chloro-4-isobutyl-phenyl)-[1,2,4]-oxadiazol-3-yl]-benzyl}-4-(3-piperidin-1-yl-propyl)-piperidine-4-carboxylic acid tert-butyl amine salt] | – |
| < 10 | CC(C)Cc1ccc(-c2nc(-c3ccc(CN4CCC(CCCN5CCCC5)(C(=O)O)CC4)cc3)no2)cc1Cl [Example 66, 1-{4-[5-(3-Chloro-4-isobutyl-phenyl)-[1,2,4]-oxadiazol-3-yl]-benzyl}-4-(3-pyrrolidin-1-yl-propyl)-piperidine-4-carboxylic acid tert-butyl amine salt] | – |
